Experimental data taken from ChEMBL document CHEMBL4680360, “Novel Oxazine Monoacylglycerol Lipase (MAGL) Inhibitors” (ACS Med Chem Lett, 2021).
pIC50: −log10 of the molar value.

Molecular target: T1, Monoglyceride lipase (Homo sapiens, UniProt Q99685)
T1 sequence (Q99685 whole entry): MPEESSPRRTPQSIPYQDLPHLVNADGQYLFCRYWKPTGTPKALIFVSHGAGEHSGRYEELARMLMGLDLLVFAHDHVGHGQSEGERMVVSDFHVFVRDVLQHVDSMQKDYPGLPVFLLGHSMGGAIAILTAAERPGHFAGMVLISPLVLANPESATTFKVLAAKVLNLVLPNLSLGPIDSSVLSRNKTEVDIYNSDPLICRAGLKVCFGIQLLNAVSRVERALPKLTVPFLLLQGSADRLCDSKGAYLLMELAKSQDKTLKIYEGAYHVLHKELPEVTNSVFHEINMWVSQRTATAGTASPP
Assay: Inhibition of MAGL (unknown origin) using 2-AG as substrate incubated for 15 mins followed by substrate addition and measured after 30 mins by mass spectrophotometry

pIC50: 10.00
SMILES: Cc1ccc([C@@H](c2ccccc2)C2CCN(C(=O)N3CC[C@@H]4OCC(=O)N[C@@H]4C3)CC2)cc1
